Tested on: style-specific S1 RNase and S2 RNase
Experiment: Inhibition of style-specific RNase activity
Type: biochemical, Fuji apple
Conditions: 1 mM DEPC
Protocol: The activity variation of the style-specific S1 RNase and S2 RNase purified in the Example 1-4 was investigated by adding chemicals acting as an inhibitor of protein degradation enzyme. RNase activity was measured by adding general stimulators of RNase activity, inhibitors of RNase activity commercially available and inhibitor candidate of a style-specific RNase of the present invention (Singh A. et al., Plant Physiology, 96:61-68, 1991). Among them, 1 mM EDTA, which is a representative inhibitor of protein degradation enzyme, 1 mM CaCl2, a stimulator of RNase activity, 1 mM DEPC (Sigma), a fatally poisonous inhibitor of RNase activity commercially available, and 1 mM ZnSO4 and 1 mM CuSO4, inhibitor candidates of the style-specific RNase was added respectively to mesure RNase activity.

## CCOC(=O)OC(=O)OCC [DEPC]
  style-specific RNase activity: inhibited

— US6723680B2, “Composition for regulation of gametophytic self-incompatibility, control method of gametophytic self-incompatibility of a plant and the plant self-pollinated by using said control method” (Istech Co., Ltd., priority 2000, dated 2004)
